Measurements as given in patent publication US12144886B2, “Perineural administration of resiniferatoxin for treatment of maladaptive pain” (Sorrento Therapeutics, Inc., priority 2018, dated 2024).

Legend:
[1] = tested on: declawed cats with chronic distal thoracic limb pain; test: QoL and pain monitoring (CSOMf, FMPI, owner reports) in open-label trial of perineural RTX in declawed cats; format: in vivo, cat
Description: Cats suffering from severe bilateral chronic pain (more than 90 days) as a result of severe complications after onychectomy were enrolled in this study (an exploratory, open-label, multicenter clinical trial). Thirteen (13) cases were treated for initial pain and reduced quality of life (QoL). Then, bilateral perineural distal limb injections (ring block technique) were administered under general anesthesia (a combination of diphenhydramine, buprenorphine, dexmedetomidine, ketamine, and isoflurane). Following a published technique (Enomoto et al., 2016) for the nerve block of the manus of the cat, the total dose of RTX was equally distributed adjacent to the 1) superficial branch of the radial nerve, 2) dorsal branch of the ulnar nerve, 3) median nerve and superficial branch of the palmar branch of the ulnar nerve, and 4) deep branch of palmar branch of the ulnar nerve. A total of 2.5 ug (1.25 ug/1 mL per forelimb in Group 1, n=7) and 5 ug (2.5 ug/1 mL per forelimb in Group 2, n=6) of RTX was injected as a one-time treatment. Group 2 included the cat for which detailed results are provided in Example B above. Monitoring of QoL and pain for the following 28 days was accomplished using the Client-Specific Outcome Measures feline (CSOMf), the Feline Musculoskeletal Pain Index (FMPI), two post-injection physical examinations, and videography on days 3, 7, 14, and 28 post injections.

[2] = tested on: declawed cat with maladaptive pain; test: Physical exam and behavioral findings in a declawed cat after perineural RTX; format: in vivo; conditions: one cat
Description: (§1) Tolerance, safety, and analgesic effects of RTX administration were evaluated in a single declawed cat with maladaptive pain. […] The cat also presented a self-limiting decreased appetite for 12 hours post injection.
A summary of the pre- and post-RTX injection physical exam results relevant to pain related to the declawed digits are presented in Table 4.
Additionally, the cat had shown elimination behavior issues, aggressivity when manipulated, and diminished attention seeking before treatment. Each of these behavioral issues related to the chronic maladaptive pain state reversed following the perineural administration of RTX, even though the cat was believed to have been in pain for years prior to this treatment.

[3] = tested on: declawed cat with maladaptive pain; test: Client Specific Outcome Measure (CSOM) in a declawed cat after perineural RTX nerve blocks; format: in vivo; parameters: key to CSOM Total score / CSOM Q1 Extending distal limb; “kneading”; stretching / CSOM Q2 Running / CSOM Q3 Jumping down from bed and window: 1 = no problem; 2 = mild difficulty; 3 = moderate; 4 = severe difficulty; 5 = impossible; conditions: one cat; for CSOM Q1 Extending distal limb; “kneading”; stretching / CSOM Q2 Running / CSOM Q3 Jumping down from bed and window / CSOM Total score: 2.5 μg/forelimb perineural
Description: Each dose of 5 μg/cat or 2.5 μg/forelimb will be formulated in 1 cc insulin syringes by diluting 0.1 mL: (2.5 μg) of RTX in 0.9 mL sterile saline for injection immediately before use. For treatment, a total of 1.0 mL (2.5 μg) will be injected as nerve blocks, distributed equally (0.25 ml per injection site) over 4 injection sites for each forelimb.
Four point nerve blocks are performed by injection of 0.25 mL RTX each into the 1) superficial branches of the radial nerve, 2) dorsal branch of the ulnar nerve, 3) median nerve and superficial branch of the palmar branch of the ulnar nerve, and 4) deep branch of the palmar branch of the ulnar nerve. The nerve blocks for each forelimb are performed following a published technique for locoregional block of the manus in cats (Enomoto et al. (2016) J. Feline Med. Surg. 18:838-845). To block the superficial branches of the radial nerve (RSbr nn), the limb is positioned with the dorsal aspect facing upwards and the carpus in 180° of extension. A 25 G×⅝-inch needle is inserted subcutaneously (SC) from a point at the center of the limb at the level of the antebrachiocarpal joint. The needle is advanced approximately 10 mm SC at a 10-20° angle to the long axis of the limb with the bevel facing up. Once the tip of the needle is 3-5 mm from the confluence point of the accessory cephalic and cephalic veins, the injection is made (0.25 mL). To block the dorsal branch of the ulnar nerve (UDbr n), the limb is positioned with the lateral aspect facing upwards. A point is located lateral to and at the same level as the accessory carpal bone (ACb), positioned between the ACb and the styloid process of the ulna (SpU). A 25 G×⅝-inch needle is inserted SC distal to proximal, so the tip lies at the midpoint of the groove formed between ACb and the SpU, and then the injection is made (0.25 mL). To block the median nerve (M n) and superficial branch of the palmar branch of the ulnar nerve (UPbrS n), the limb is positioned with the palmar aspect facing upwards. A 25 G×⅝-inch needle is inserted SC at the distal border of the carpal pad and approximately 5 mm lateral to it, perpendicular to the long axis of the metacarpus, with the bevel facing up. The needle is inserted SC until the point is located two-thirds of the distance from the lateral aspect of the limb to the medial aspect. Two-thirds of the injectate volume is deposited at this point and the remaining volume is injected while the needle is withdrawn (0.25 mL). Gentle massage is applied to the injected volume under the skin for 5 seconds. To block the deep branch of the palmar branch of the ulnar nerve (UPbrDp n), the limb is positioned with the palmar aspect facing upwards. A 25 G×⅝-inch needle is inserted almost perpendicular to the ACb in a mediolateral direction such that the needle contacts the medial palmar aspect of the midpoint of the ACb with the bevel facing up. The needle is then redirected dorsally and advanced on the medial side of the ACb 2-3 mm until it penetrates the flexor retinaculum, and then the injection is made (0.25 mL).
The effectiveness of the injection with RTX is assessed at days 3, 7, and 14 using owner videography for qualitative assessment (jumping, manipulation of the limb), and cats will also be evaluated using the Feline Musculoskeletal Pain Index (FMPI) and the Client Specific Outcome Measure (CSOM).
For CSOM, owners are asked to score three attributes (Q1) Extending distal limb, “kneading”; stretching, (Q2) Running; and (Q3) Jumping down from bed and window using a scale of 1-5 where 1=no problem, 2=mild difficulty, 3=moderate, 4=severe difficulty, and 5=impossible.
as §1

C=C(C)[C@]12C[C@@H](C)[C@@]34O[C@](Cc5ccccc5)(O[C@@H]1[C@@H]3C=C(COC(=O)Cc1ccc(O)c(OC)c1)C[C@]1(O)C(=O)C(C)=C[C@@H]41)O2 [RTX, resiniferatoxin]
CSOMf and FMPI scores ([1]; 28-day monitoring period, 13 cats): clear improvement | Owner-reported natural and pathological adopted behaviors (QoL) ([1]; both groups): significant changes | Duration of improvements reported informally ([1]; in some cases): over 6 months | Treatment of distal thoracic limb pain ([1]; perineural injections, cats): can effectively treat | Behavioral issues (elimination behavior issues, aggressivity when manipulated, diminished attention seeking) ([2]; following perineural administration): reversed | Overall conclusion from CSOM and FMPI scores ([2]; 2.5 μg/forelimb perineural): safe and effective | Persistence of effects ([2]; 2.5 μg/forelimb perineural): at least 14 days | CSOM Q1 Extending distal limb; “kneading”; stretching ([3]; Day 0 (baseline)): 3 | CSOM Q2 Running ([3]; Day 0 (baseline)): 3 | CSOM Q3 Jumping down from bed and window ([3]; Day 0 (baseline)): 2 | CSOM Total score ([3]; Day 0 (baseline)): 8 | CSOM Q1 Extending distal limb; “kneading”; stretching ([3]; Day 3): 2 | CSOM Q2 Running ([3]; Day 3): 3 | CSOM Q3 Jumping down from bed and window ([3]; Day 3): 2 | CSOM Total score ([3]; Day 3): 7 | CSOM Q1 Extending distal limb; “kneading”; stretching ([3]; Day 7): 1 | CSOM Q2 Running ([3]; Day 7): 2 | CSOM Q3 Jumping down from bed and window ([3]; Day 7): 2 | CSOM Total score ([3]; Day 7): 5 | CSOM Q1 Extending distal limb; “kneading”; stretching ([3]; Day 14): 2 | CSOM Q2 Running ([3]; Day 14): 2 | CSOM Q3 Jumping down from bed and window ([3]; Day 14): 2 | CSOM Total score ([3]; Day 14): 6 | CSOM Q1 Extending distal limb; “kneading”; stretching ([3]; Screening (baseline)): 3 | CSOM Q2 Running ([3]; Screening (baseline)): 3 | CSOM Q3 Jumping down from bed and window ([3]; Screening (baseline)): 2 | CSOM Total score ([3]; Screening (baseline)): 8 | CSOM: extending distal limb, kneading, stretching and running ([3]; after injection): showed improvement
